According to ChEMBL document CHEMBL1201862, “PubChem BioAssay data set” (2004):
Activity calls are given as the source filed them.

Legend:
[1] = activation of miR-122 Renilla sensor silencing – cell-based, Huh7 psiCHECK-miR122, Renilla luciferase, cherry-picked, dose response (AID 651956); type: functional;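 further: huh7 hepatoma cells stably carrying a psiCHECK-2 miR-122 sensor plasmid; renilla luciferase signal reporting endogenous miR-122 activity after 48 h compound exposure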
[2] = target: Beta Lactamase (Pseudomonas aeruginosa, UniProt Q932Y6); assay: BLA reporter interference, concentration series – BLA reporter cells, FRET fluorescence, artefact control for NOD2-RIPK2 interaction inhibitor project, dose response (AID 651552); type: functional, cell-based
[3] = loss of viability in HepG2 cells – cell-based, CellTiter-Glo, cherry-picked, cytotoxicity control for Shn3 inhibitor project, dose response (AID 624134); type: functional
[4] = Fluorescence-based cell-based high throughput dose response assay for inhibitors of the interaction of nucleotide-binding oligomerization domain containing 2 (NOD2) and the receptor-interacting serine-threonine kinase 2 (RIPK2).; type: functional; details: Homo sapiens
[5] = non-specific 3'UTR reporter inhibition in Clone20-Shn3RL – cell-based, Renilla luciferase, cherry-picked, counter-screen for Shn3 inhibitor project, dose response (AID 624133); type: functional
[6] = reduction of Shn3 3'UTR-driven luciferase in osteoblasts – cell-based, Clone20 osteoblasts, firefly luciferase, cherry-picked, dose response (AID 624132); type: functional;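 further: firefly luciferase luminescence from reporter carrying the Shn3 3'UTR in osteoblasts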
[7] = cells
[8] = target: Major prion protein (Homo sapiens, UniProt P04156); type: functional, cell-based
[9] = target: Fructose-bisphosphate aldolase (Mycobacterium tuberculosis, UniProt P9WQA3); assay: Fluorescence-based biochemical high throughput dose response assay for inhibitors of the fructose-bisphosphate aldolase (FBA) of M. tuberculosis.; type: functional
[10] = target: Nuclear receptor subfamily 5 group A member 2 (Homo sapiens, UniProt O00482); type: functional, cell-based;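 further: HEK293T cells transfected with LRH-1 and a StAR promoter luciferase reporter; potency for inhibitors that lower LRH-1 driven reporter light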
[11] = target: Steroidogenic factor 1 (Homo sapiens, UniProt Q13285); assay: Counterscreen for inverse agonists of the liver receptor homolog-1 (LRH-1; NR5A2): Luminescence-based cell-based high throughput dose response assay to identify inverse agonists of the Steroidogenic Factor 1 Nuclear Receptor (SF1; NR5A1).; type: functional
[12] = nonselective StAR promoter luciferase inhibitors – cell-based, luminescence, luciferase reporter, counter-screen for LRH-1 inverse agonist project, dose response (AID 651969); type: functional
[13] = cells; type: functional, cell-based
[14] = target: T1, Trace amine-associated receptor 1 (Homo sapiens, UniProt Q96RJ0); assay: Fluorescence-based cell-based high throughput dose response assay to identify agonists of the human trace amine associated receptor 1 (TAAR1).; type: functional
T1 sequence (Q96RJ0 whole entry): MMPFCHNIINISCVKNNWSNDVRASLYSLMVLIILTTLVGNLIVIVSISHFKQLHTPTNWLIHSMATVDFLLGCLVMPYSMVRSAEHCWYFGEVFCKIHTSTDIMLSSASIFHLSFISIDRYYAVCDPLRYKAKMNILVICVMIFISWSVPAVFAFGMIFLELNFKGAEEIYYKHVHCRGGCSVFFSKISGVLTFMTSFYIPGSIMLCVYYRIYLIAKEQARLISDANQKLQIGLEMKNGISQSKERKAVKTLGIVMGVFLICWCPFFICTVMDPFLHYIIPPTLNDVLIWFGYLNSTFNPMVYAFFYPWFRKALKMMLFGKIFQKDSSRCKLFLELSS

[15] = target: T1, Trace amine-associated receptor 1; assay: Counterscreen for agonists of the human trace amine associated receptor 1 (hTAAR1): Fluorescence-based cell-based high throughput dose response assay to identify hTAAR1 agonist that also desensitize TAAR1 receptor response.; type: functional
[16] = cells; type: functional, cell-based; remark: listed apart in the source
[17] = system: HEK293; assay: optical interference in Abeta FP readout, dose response, artefact control for IDE activator project, biochemical, fluorescence polarization (AID 588442); type: functional, cell-based; details: Homo sapiens
[18] = target: Estrogen receptor beta (Homo sapiens, UniProt Q92731); assay: blockers of SRC-3 recruitment to ERβ – biochemical, ELISA, streptavidin-HRP readout, orthogonal assay, confirmation (AID 1060)
[19] = target: T2, Insulin-degrading enzyme (Homo sapiens, UniProt P14735); assay: cellular IDE activation of Abeta substrate cleavage – fluorescence polarization, HEK cells, dose response (AID 588439); type: functional, cell-based
T2 sequence (P14735 whole entry): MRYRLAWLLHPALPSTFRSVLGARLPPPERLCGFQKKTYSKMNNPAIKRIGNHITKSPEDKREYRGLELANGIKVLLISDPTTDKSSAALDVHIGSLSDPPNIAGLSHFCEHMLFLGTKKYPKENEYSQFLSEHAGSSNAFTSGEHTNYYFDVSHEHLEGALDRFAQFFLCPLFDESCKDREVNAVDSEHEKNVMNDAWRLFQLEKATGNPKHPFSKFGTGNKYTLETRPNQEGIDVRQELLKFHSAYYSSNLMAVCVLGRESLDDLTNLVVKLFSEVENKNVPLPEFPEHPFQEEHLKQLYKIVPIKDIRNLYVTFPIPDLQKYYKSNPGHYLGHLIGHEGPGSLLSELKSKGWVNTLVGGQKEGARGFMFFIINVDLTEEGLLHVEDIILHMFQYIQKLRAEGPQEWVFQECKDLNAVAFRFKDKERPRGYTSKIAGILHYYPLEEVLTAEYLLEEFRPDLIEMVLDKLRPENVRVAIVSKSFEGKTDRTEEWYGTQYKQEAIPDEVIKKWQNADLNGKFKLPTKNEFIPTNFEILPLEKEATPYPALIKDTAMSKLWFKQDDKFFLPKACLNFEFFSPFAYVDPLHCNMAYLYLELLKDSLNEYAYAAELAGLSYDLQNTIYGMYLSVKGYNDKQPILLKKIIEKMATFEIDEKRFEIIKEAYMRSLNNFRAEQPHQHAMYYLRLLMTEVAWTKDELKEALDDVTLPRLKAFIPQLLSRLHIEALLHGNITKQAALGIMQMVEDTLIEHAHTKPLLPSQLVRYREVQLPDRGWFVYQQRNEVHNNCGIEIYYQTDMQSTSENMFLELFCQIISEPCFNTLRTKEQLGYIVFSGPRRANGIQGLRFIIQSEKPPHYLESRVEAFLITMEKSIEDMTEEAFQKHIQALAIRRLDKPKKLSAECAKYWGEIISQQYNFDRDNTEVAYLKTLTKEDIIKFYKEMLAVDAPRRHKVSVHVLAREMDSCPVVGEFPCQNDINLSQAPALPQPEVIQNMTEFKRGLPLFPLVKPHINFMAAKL

[20] = target: T3, Protein Tat (Human immunodeficiency virus type 1 group M subtype B (isolate HXB2)(HIV-1), UniProt P04608); type: functional;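 further: tat binding to TAR RNA read out by fluorescence polarization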
T3 sequence (P04608 whole entry): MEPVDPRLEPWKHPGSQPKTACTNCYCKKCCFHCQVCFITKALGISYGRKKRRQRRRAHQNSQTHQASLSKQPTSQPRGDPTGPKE

[21] = system: HEK293; assay: membrane integrity loss in HEK cells – cell-based, fluorescence, cytotoxicity control for IDE activator project, dose response (AID 588440); type: functional; details: Homo sapiens;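 further: cytotoxicity by LDH release measuring loss of membrane integrity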
[22] = target: T2, Insulin-degrading enzyme; assay: recombinant IDE activation, cell-free – biochemical, fluorescence polarization, counter-screen for IDE activator project, dose response (AID 588681)
[23] = viability loss in THP-1 monocytes – THP-1 cells, cytotoxicity control for Vif-APOBEC3G degradation inhibitor project, dose response (AID 1117359); type: functional; details: THP-1
[24] = target: Paired box protein Pax-8 (Homo sapiens, UniProt Q06710); assay: PAX8 transcriptional activity inhibition in RMG-I – RMG-I cells, luciferase, cherry-pick, dose response (AID 687027); type: functional, cell-based;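 further: luciferase reporter driven by Pax8 target thyroperoxidase promoter measured by SteadyGlo luminescence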
[25] = general cell-killing toxicity readout – plate reader, dry powder samples, cytotoxicity control for PAX8 inhibitor project, dose response (AID 743021); type: functional, cell-based
[26] = Counterscreen for activators of the function of SWI/SNF related, matrix associated, actin dependent regulator of chromatin, subfamily a, member 2 (SMARCA2, BRM): Luminescence-based cell-based high throughput dose response assay to identify non-selective compounds using the VP16 reporter assay.; type: functional
[27] = target: SWI/SNF-related matrix-associated actin-dependent regulator of chromatin subfamily A member 2 (Homo sapiens, UniProt P51531); assay: Luminescence-based cell-based high throughput dose response assay to identify activators of the function of SWI/SNF related, matrix associated, actin dependent regulator of chromatin, subfamily a, member 2 (SMARCA2, BRM).; type: functional
[28] = target: FAD-linked sulfhydryl oxidase ALR (Homo sapiens, UniProt P55789); assay: ALR-catalysed DTT oxidation blockers – biochemical, H2O2 detection, luminescence, cherry-pick, dose response (AID 493248)

With `CO[C@H]1CN(C)C(=O)c2ccc(NC(C)=O)cc2OC[C@@H](C)N(C(=O)CC2CC2)C[C@H]1C` the AC50 [1] was 49.6 µM (active).
In the case of `C=C1C(=O)[C@]23C[C@H]1CCC2[C@@]1(C)C(C[C@@H]3O)[C@](C)(C(=O)OC)CC[C@@H]1OC(C)=O` (stereo not given in full), the IC50 [2] is reported as 18 µM (inactive), the AC50 [3] is reported as 7.22 µM (active) and the IC50 [4] is reported as 0.917 µM (active). The AC50 [5] was 3.51 µM (active) and the AC50 [6] was 2.14 µM (active).
In the case of `COC(=O)c1sc(N=C(S)NNC(=O)c2c(Br)c(C)nn2C)c(C(=O)OC)c1C`, the IC50 [7] is reported as > 138 µM (inactive) and the IC50 [8] is reported as 1.16 µM (active).
For `CCOC(=O)c1cnc2ccc(C)cn2c1=O`, the IC50 [9] was 1.23 µM (active).
For `COc1ccc(NC(=O)COC(=O)Cc2c[nH]c3ccccc23)cc1Cl`, the IC50 [10] was 25.4 µM (inactive), the IC50 [11] was 17.6 µM (inactive) and the IC50 [12] was 35.9 µM (inactive).
In the case of `O=C(CSC1=NS(=O)(=O)c2ccccc2N1)NCCc1ccccc1`, the IC50 [13] is reported as > 29.9 µM (inactive), the EC50 [14] is reported as 3.33 µM (active) and the IC50 [15] is reported as 6.94 µM (active). For the same molecule, the EC50 [16] was > 29.9 µM (inactive).
With `CNc1ncc(C(=O)c2ccc(Cl)cc2)s1` the IC50 [7] was > 138 µM (inactive) and the IC50 [8] was 6.92 µM (active).
For `COc1cc(C2Nc3cccc4cccc(c34)N2)cc(OC)c1O`, the EC50 [17] was > 55.9 µM (inactive), the IC50 [18] was 5.04 µM (not active) and the EC50 [19] was > 54.7 µM (inactive). For the same molecule, the IC50 [20] was 13.1 µM (inconclusive), the IC50 [21] was > 89.2 µM (inactive) and the EC50 [22] was > 54.7 µM (inactive). For the same molecule, the CC50 [23] was 2.1 µM (active).
With `C=C1C(=O)[C@]23C[C@H]1CCC2[C@@]1(C)C(C[C@@H]3O)[C@](C)(C(=O)OC)CC[C@@H]1O` (stereo not given in full) the AC50 [24] was 1.71 µM (active), the AC50 [25] was 38.2 µM (active) and the IC50 [2] was 24.2 µM (inactive). For the same molecule, the AC50 [3] was 15.8 µM (active), the IC50 [4] was 2.3 µM (active) and the AC50 [5] was 7.06 µM (active). The AC50 [6] was 2.58 µM (active).
With `Cc1ccc(O)c(CNc2nc3ccccc3n2C)c1` the EC50 [26] was > 91.2 µM (inactive), the EC50 [27] was > 91.2 µM (inactive) and the AC50 [28] was 9.83 µM (active).
